Reference: ChEMBL document CHEMBL3046047, “Synthesis and evaluation of anti-inflammatory and analgesic activity of 3-[(5-substituted-1,3,4-oxadiazol-2-yl-thio)acetyl]-2H-chromen-2-ones” (Med Chem Res, 2012)

What was measured:
Rattus norvegicus [1] = test: Acute Anti-inflammatory activity inRattus norvegicus albino (rat) assessed as inhibition of carrageenan-induced paw edema at 200 mg/kg, po administered 1 hr after carrageenan challenge measured after 3 hr relative to control; assay type: functional
[2] = Acute toxicity in po dosed Mus musculus albino (mouse) up to 24 hr; assay type: organism-based; conditions: in vivo
Mus musculus [3] = test: Acute toxicity in Mus musculus albino (mouse) assessed as mortality up to 2000 mg/kg, po after 24 hr; assay type: organism-based; set-up: dose 2000 mg/kg, route oral; conditions: in vivo
Mus musculus [4] = test: Acute toxicity in Mus musculus albino (mouse) assessed as alertness, touch response, and restlessness at 10 to 2000 mg/kg, po after 24 hr; assay type: organism-based; set-up: dose 10-2000 mg/kg, route oral; conditions: in vivo
Rattus norvegicus [5] = test: Acute Anti-inflammatory activity in Rattus norvegicus albino (rat) assessed as inhibition of carrageenan-induced paw edema at 200 mg/kg, po administered 1 hr after carrageenan challenge measured after 5 hr relative to control; assay type: functional
Rattus norvegicus [6] = test: Toxicity inRattus norvegicus albino (rat) assessed as ulcer index at 200 mg/kg, po after 7 hr relative to control; assay type: organism-based; set-up: dose 200 mg/kg, route oral; conditions: in vivo
Mus musculus [7] = test: Analgesic activity in Mus musculus albino (mouse) assessed as protection against acetic acid-induced writhing at 200 mg/kg, po administered 30 min before acetic acid challenge measured after 15 min relative to control; assay type: functional
Mus musculus [8] = test: Analgesic activity in Mus musculus albino (mouse) assessed as protection against acetic acid-induced writhing at 135 mg/kg, po administered 30 min before acetic acid challenge measured after 15 min relative to control; assay type: functional
Rattus norvegicus [9] = test: Acute Anti-inflammatory activity in Rattus norvegicus albino (rat) assessed as inhibition of carrageenan-induced paw edema at 13.5 mg/kg, po administered 1 hr after carrageenan challenge measured after 3 hr relative to control; assay type: functional
Rattus norvegicus [10] = test: Acute Anti-inflammatory activity in Rattus norvegicus albino (rat) assessed as inhibition of carrageenan-induced paw edema at 13.5 mg/kg, po administered 1 hr after carrageenan challenge measured after 5 hr relative to control; assay type: functional

Row | Compound | inhibition in vivo at 200 mg/kg (Rattus norvegicus [1]) [%] | MTD at 24 h [2] [mg/kg] | Activity (Mus musculus [3]) | Activity (Mus musculus [4]) | inhibition in vivo at 200 mg/kg (Rattus norvegicus [5]) [%] | UI (Rattus norvegicus [6]) | Activity (Mus musculus [7]) [%] | Activity (Mus musculus [8]) [%] | inhibition in vivo at 13.5 mg/kg (Rattus norvegicus [9]) [%] | inhibition in vivo at 13.5 mg/kg (Rattus norvegicus [10]) [%]
1 | O=C(CSc1nnc(-c2ccccc2O)o1)c1cc2ccccc2oc1=O | 46.3 | 200 | Non-toxic | Toxic | 48.7 | – | – | – | – | –
2 | O=C(CSc1nnc(Cc2ccccc2Nc2c(Cl)cccc2Cl)o1)c1cc2ccccc2oc1=O | 81.3 | 200 | Non-toxic | Toxic | 64.5 | 1.7 | 68 | – | – | –
3 | O=C(Cc1ccccc1Nc1c(Cl)cccc1Cl)OCc1nnc(SCC(=O)c2cc3ccccc3oc2=O)o1 | 37.5 | 200 | Non-toxic | Toxic | 26.3 | – | – | – | – | –
4 | C[C@H](c1ccc(-c2ccccc2)c(F)c1)c1nnc(SCC(=O)c2cc3ccccc3oc2=O)o1 | 74.9 | 200 | Non-toxic | Toxic | 61.6 | 2.3 | 60 | – | – | –
5 | CC(c1cccc(C(=O)c2ccccc2)c1)c1nnc(SCC(=O)c2cc3ccccc3oc2=O)o1 (stereo not given) | 65.4 | 200 | Non-toxic | Toxic | 60.9 | 3.2 | 73 | – | – | –
6 | COc1ccc2c(c1)c(Cc1nnc(SCC(=O)c3cc4ccccc4oc3=O)o1)c(C)n2C(=O)c1ccc(Cl)cc1 | 56.9 | 200 | Non-toxic | Toxic | 51.3 | – | – | – | – | –
7 | O=C(CSc1nnc(C2CCn3c(C(=O)c4ccccc4)ccc32)o1)c1cc2ccccc2oc1=O (stereo not given) | 67.4 | 200 | Non-toxic | Toxic | 71.3 | 4.4 | 54 | – | – | –
8 | CC(=O)Nc1ccc(OCc2nnc(SCC(=O)c3cc4ccccc4oc3=O)o2)cc1 | 56.3 | 200 | Non-toxic | Toxic | 43.4 | – | – | – | – | –
9 | CC(C)Cc1ccc(C(C)c2nnc(SCC(=O)c3cc4ccccc4oc3=O)o2)cc1 (stereo not given) | 45 | 200 | Non-toxic | Toxic | 46.1 | – | – | – | – | –
10 | CC(=O)Oc1ccccc1C(=O)O [ASPIRIN] | – | – | – | – | – | – | – | 69 | – | –
11 | O=C(O)Cc1ccccc1Nc1c(Cl)cccc1Cl [DICLOFENAC] | – | – | – | – | – | 5.5 | – | – | 79.5 | 75
12 | CC(C(=O)O)c1ccc(-c2ccccc2)c(F)c1 (stereo not given) [FLURBIPROFEN] | – | – | – | – | – | 5.3 | – | – | – | –
13 | CC(C(=O)O)c1cccc(C(=O)c2ccccc2)c1 (stereo not given) [KETOPROFEN] | – | – | – | – | – | 4.6 | – | – | – | –
14 | O=C(c1ccccc1)c1ccc2n1CCC2C(=O)O (stereo not given) [KETOROLAC] | – | – | – | – | – | 4.9 | – | – | – | –
